The values below come from US20250144067A1, “PERSONALIZED STARVATION THERAPY FOR CANCER” (Faeth Therapeutics, Inc., priority 2021, published 2025).

Structures can show the parent of a compound that is named as a salt. Where two headings read alike, the source gives them in different places.

The test system of assay [1] is NCI-H292 lung cancer cells. The experiment in a line: FDA drug screening, complete media vs cholesterol-free media with simvastatin (TABLE 2). In kind it is cell-based, human.
Assay [2] has as its system NCI-H292 lung cancer cells. In words: FDA drug screening, complete media vs cholesterol-free media without statin (TABLE 1). In kind it is cell-based, human.
Setting [3] is: NCI-H292 cells, FDA drug library screen, cholesterol-free media with simvastatin 0.04 μM.
Setting [4] is: NCI-H292 cells, FDA drug library screen, complete media.
The mark [5] stands for this setting: complete media vs cholesterol-free media + simvastatin (0.04 μM), […].
Where [6] appears, read: Complete minus Cholesterol-free, […].
Setting [7] is: NCI-H292 cells, cholesterol-free media without statin, FDA drug library screen.
[8] abbreviates: NCI-H292 cells, complete media, FDA drug library screen.
Setting [9] is: NCI-H292 cells, drug in cholesterol-free media with simvastatin 0.04 μM.
Where [10] appears, read: NCI-H292 cells, drug in complete media.
The mark [11] stands for this setting: complete media vs cholesterol-free media + simvastatin (0.04 μM), >0 enhanced anti-cancer activity, about 0 neutral, <0 antagonist.
Setting [12] is: NCI-H292 cells, cholesterol-free media without statin.
Setting [13] is: complete vs cholesterol-free media, greater than 0 enhanced anti-cancer activity, about 0 neutral, below 0 antagonists.
The mark [14] stands for this setting: complete media minus cholesterol-free media + simvastatin (0.04 μM), >0 enhanced anti-cancer activity, about 0 neutral, <0 antagonist.
[15] abbreviates: Complete minus Cholesterol-free, greater than 0 enhanced anti-cancer activity, about 0 neutral, below 0 antagonists.
Setting [16] is: NCI-H292 cells in cholesterol-free media without statin.
The mark [17] stands for this setting: NCI-H292 cells in complete media.
Where [18] appears, read: NCI-H292 cells, cholesterol-free media with simvastatin 0.04 μM, FDA drug library screen (TABLE 2).
Setting [19] is: NCI-H292 cells, complete media, FDA drug library screen (TABLE 2).
Setting [20] is: Complete minus Cholesterol-free, >0 enhanced anti-cancer activity, about 0 neutral, <0 antagonist.
The mark [21] stands for this setting: complete media minus cholesterol-free media + simvastatin, >0 enhanced anti-cancer activity, about 0 neutral, <0 antagonist.
Where [22] appears, read: Complete minus Cholesterol-free, greater than 0 enhanced anti-cancer activity, about 0 neutral, below 0 antagonist.
Setting [23] is: NCI-H292 cells, FDA drug library screen, cholesterol-free media without statin.

Consider Vinblastine (sulfate), for which, in assay [1] (setting [3]), the “Cholesterol-free media + simvastatin (0.04 μM)” value is listed as 0.2181. Besides, the “Complete Media” value in assay [1] (setting [4]) is listed as 0.1119. For the same compound, the Difference in assay [1] (setting [5]) was −0.11; in assay [2] (setting [6]), 0.04. In assay [2] (setting [7]), this compound showed a Cholesterol-free of 0.05138. The Complete in assay [2] (setting [8]) amounted to 0.09114.

Take `CC1CS(=O)(=O)CCN1/N=C/c1ccc([N+](=O)[O-])o1` (stereo not shown) [Nifurtimox]: the “Cholesterol-free media + simvastatin (0.04 μM)” value in assay [1] (setting [9]) came to 1.357. Further, in assay [1] (setting [10]), the “Complete Media” value came out at 1.111. The Difference in assay [1] (setting [11]) is −0.25; in assay [2] (setting [13]), −0.34. The compound also registered a Cholesterol-free in assay [2] (setting [12]) of 1.443. In addition, the Complete in assay [2] (NCI-H292 cells, complete media) was found to be 1.102.

For the compound `CNC[C@H](O)c1cccc(O)c1` [Phenylephrine (hydrochloride)], the “Cholesterol-free media + simvastatin (0.04 μM)” value in assay [1] (setting [3]) worked out at 2.302. Further, the Difference in assay [1] (setting [14]) was −1.21; in assay [2] (setting [15]), −0.61. Further, the Cholesterol-free in assay [2] (setting [16]) was 1.371. In assay [2] (setting [17]), this compound showed a Complete of 0.7558.

`C[C@H](CS)C(=O)N1CCC[C@H]1C(=O)O` [Captopril]: the “Cholesterol-free media + simvastatin (0.04 μM)” value in assay [1] (setting [18]) worked out at 0.8354. The “Complete Media” value in assay [1] (setting [19]) amounted to 0.832. Further, the Difference in assay [1] (setting [14]) was 0.00; in assay [2] (setting [20]) it was −0.19. For the same compound, the Cholesterol-free in assay [2] (setting [12]) came out at 0.897. Besides, the Complete in assay [2] (NCI-H292 cells, complete media) was determined as 0.704.

As to `CC(C)c1ccc2oc3nc(N)c(C(=O)O)cc3c(=O)c2c1` [Amlexanox], the “Cholesterol-free media + simvastatin (0.04 μM)” value in assay [1] (setting [3]) amounted to 0.7766. In addition, the “Complete Media” value in assay [1] (setting [4]) is 1.161. Also, the Difference is recorded as 0.38 in assay [1] (setting [21]) and −0.41 in assay [2] (setting [13]). Besides, the Cholesterol-free in assay [2] (setting [12]) is 1.264. Further, in assay [2] (NCI-H292 cells, complete media), the Complete is 0.8551.

Consider `CC(=O)N1CCN(c2ccc(OC[C@H]3CO[C@](Cn4ccnc4)(c4ccc(Cl)cc4Cl)O3)cc2)CC1` [(+)-Ketoconazole], for which the “Cholesterol-free media + simvastatin (0.04 μM)” value in assay [1] (setting [3]) came to 0.4743. Further, the “Complete Media” value in assay [1] (setting [4]) stood at 0.9511. The Difference was 0.48 in assay [1] (setting [21]) and −0.24 in assay [2] (setting [20]). This compound came in with a Cholesterol-free in assay [2] (setting [12]) of 1.237. This compound came in with a Complete in assay [2] (NCI-H292 cells, complete media) of 0.9934.

Consider `COc1cc2c(cc1OC)[C@@H]1Cc3ccc(OC)c(OC)c3CN1CC2` [Rotundine], for which the “Cholesterol-free media + simvastatin (0.04 μM)” value in assay [1] (NCI-H292 cells, FDA library drug in cholesterol-free media with simvastatin 0.04 μM) stood at 1.094. Further, in assay [1] (NCI-H292 cells, FDA library drug in complete media), the “Complete Media” value is 0.8277. In addition, the Difference is −0.27 in assay [1] (setting [11]) and −0.21 in assay [2] (setting [20]). Moreover, the Cholesterol-free in assay [2] (setting [12]) was 1.07. The same compound yielded a Complete in assay [2] (NCI-H292 cells, complete media) of 0.8588.

With `Cc1oc(=O)oc1CN1CCN(c2cc3c(cc2F)c(=O)c(C(=O)O)c2n3C(C)S2)CC1` (stereo not shown) [Prulifloxacin], the “Cholesterol-free media + simvastatin (0.04 μM)” value in assay [1] (setting [3]) was found to be 0.966. For the same compound, the Difference in assay [1] (setting [21]) stood at 0.21; in assay [2] (complete vs cholesterol-free media, >0 enhanced anti-cancer activity, about 0 neutral, <0 antagonist), 0.10. The compound further registered a Cholesterol-free in assay [2] (setting [7]) of 1.111. Besides, the Complete in assay [2] (setting [8]) was 1.213.

Regarding `C[C@]1(Cn2ccnn2)[C@H](C(=O)O)N2C(=O)C[C@H]2S1(=O)=O` [Tazobactam], the “Cholesterol-free media + simvastatin (0.04 μM)” value in assay [1] (setting [3]) was found to be 1.141. Besides, the “Complete Media” value in assay [1] (setting [4]) is recorded as 1.299. Besides, the Difference in assay [1] (setting [21]) was 0.16; in assay [2] (setting [22]), −0.10. In assay [2] (setting [23]), this compound yielded a Cholesterol-free of 1.004. In assay [2] (setting [4]), this compound registered a Complete of 0.9006.

Regarding `CC1=C2[C@H]3OC(=O)[C@@H](C)[C@@H]3CC[C@@]2(C)C=CC1=O` [Santonin], in assay [1] (setting [9]), the “Cholesterol-free media + simvastatin (0.04 μM)” value came to 1.229. In addition, in assay [1] (setting [10]), the “Complete Media” value came out at 1.004. In addition, the Difference in assay [1] (setting [5]) was −0.23; in assay [2] (setting [6]), −0.53. The compound further came in with a Cholesterol-free in assay [2] (setting [16]) of 1.389. Further, the Complete in assay [2] (setting [17]) is listed as 0.8572.

Turning to `Cl.Cl.NCCc1c[nH]cn1` [Histamine (dihydrochloride)], in assay [1], the “Cholesterol-free media + simvastatin (0.04 μM)” value came to 0.9209, the “Complete Media” value is 0.9238 and the Difference turned out to be 0.00. In assay [2], this compound registered a Cholesterol-free of 1.708, a Complete of 1.081 and a Difference of −0.63.

On to `Nc1ccc(S(=O)(=O)Nc2ccnn2-c2ccccc2)cc1` [Sulfaphenazole], for which the “Cholesterol-free media + simvastatin (0.04 μM)” value in assay [1] (setting [3]) is listed as 1.123. Also, in assay [1] (setting [4]), the “Complete Media” value worked out at 1.024. For the same compound, the Difference in assay [1] (setting [11]) is on record as −0.10; in assay [2] (setting [22]), −0.18. In assay [2] (setting [23]), this compound showed a Cholesterol-free of 1.174. Further, the Complete in assay [2] (setting [4]) was found to be 0.9989.

As to `CN(C)CCOC(c1ccccc1)c1ccccc1` [Diphenhydramine (hydrochloride)], in assay [1] (setting [3]), the “Cholesterol-free media + simvastatin (0.04 μM)” value was determined as 0.5789. Besides, in assay [1] (setting [4]), the “Complete Media” value came to 0.7429. Also, the Difference is reported as 0.16 in assay [1] (setting [21]) and −0.19 in assay [2] (setting [20]). For the same compound, the Cholesterol-free in assay [2] (setting [12]) is given as 1.083. In addition, in assay [2] (NCI-H292 cells, complete media), the Complete came to 0.8936.

Turning to `N[C@@H](Cc1c[nH]c2ccc(O)cc12)C(=O)O` [L-5-Hydroxytryptophan], the “Cholesterol-free media + simvastatin (0.04 μM)” value in assay [1] (setting [3]) was found to be 1.408. The “Complete Media” value in assay [1] (setting [4]) is reported as 1.327. The Difference is on record as −0.08 in assay [1] (setting [11]) and −0.10 in assay [2] (setting [22]). In addition, the Cholesterol-free in assay [2] (setting [23]) was 1.028. In addition, in assay [2] (setting [4]), the Complete is listed as 0.9245.

As for `Cc1ncc(C[n+]2csc(CCO)c2C)c(N)n1` [Thiamine monochloride], in assay [1] (setting [3]), the “Cholesterol-free media + simvastatin (0.04 μM)” value amounted to 1.042. The “Complete Media” value in assay [1] (setting [4]) came to 0.9007. Moreover, the Difference is recorded as −0.14 in assay [1] (setting [11]) and −0.23 in assay [2] (setting [20]). The same compound had a Cholesterol-free in assay [2] (setting [12]) of 0.9486. For the same compound, the Complete in assay [2] (NCI-H292 cells, complete media) was determined as 0.7138.

Turning to `CC(C)[C@H](N)C(=O)OCCOCn1cnc2c(=O)[nH]c(N)nc21` [Valacyclovir (hydrochloride)], the “Cholesterol-free media + simvastatin (0.04 μM)” value in assay [1] (setting [3]) stood at 0.9432. Moreover, the “Complete Media” value in assay [1] (setting [4]) is 1.26. The Difference is recorded as 0.32 in assay [1] (setting [21]) and −0.34 in assay [2] (setting [13]). The Cholesterol-free in assay [2] (setting [12]) is given as 1.143. The compound also showed a Complete in assay [2] (NCI-H292 cells, complete media) of 0.7981.

`CNCC[C@H](Oc1cccc2ccccc12)c1cccs1` [Duloxetine (hydrochloride)]: in assay [1], the “Cholesterol-free media + simvastatin (0.04 μM)” value is listed as 1.089, the “Complete Media” value turned out to be 1.143 and the Difference is on record as 0.05. In addition, in assay [2], the Cholesterol-free is 1.331, the Complete turned out to be 1.434 and the Difference worked out at 0.10.

Take `O=C1CCC(N2C(=O)c3ccccc3C2=O)C(=O)N1` (stereo not shown) [Thalidomide]: in assay [1] (setting [9]), the “Cholesterol-free media + simvastatin (0.04 μM)” value is recorded as 1.184. Further, the “Complete Media” value in assay [1] (setting [10]) came to 1.013. The Difference is reported as −0.17 in assay [1] (setting [11]) and −0.92 in assay [2] (setting [15]). The compound further registered a Cholesterol-free in assay [2] (setting [16]) of 1.865. Also, the Complete in assay [2] (setting [17]) is 0.9496.

Turning to `COc1c(-c2ccc3cc(NS(C)(=O)=O)ccc3c2)cc(-n2ccc(=O)[nH]c2=O)cc1C(C)(C)C` [Dasabuvir], the “Cholesterol-free media + simvastatin (0.04 μM)” value in assay [1] (setting [18]) was determined as 1.1. In assay [1] (setting [19]), the “Complete Media” value stood at 1.064. The values for the Difference in assay [1] (setting [14]) and in assay [2] (setting [13]) were −0.04 and −0.40, respectively. This compound also had a Cholesterol-free in assay [2] (setting [12]) of 1.225. In assay [2] (NCI-H292 cells, complete media), this compound registered a Complete of 0.8287.
